Data as given in PMC9994260, “Cryo-EM structure of the RADAR supramolecular anti-phage defense complex” (Cell, 2023).
Where “and” joins values, the source holds several entries; their conditions need not be identical. Equal entries are not always repeated.

How the values were obtained:
E. coli RdrA (EcRdrA) = target: T1, E. coli RdrA (EcRdrA) (Escherichia coli, UniProt A0AAN0NNX5); assay: malachite green phosphate release (NTPase); type: biochemical; settings: 1 mM NTP, 5 μM RdrA, 2 h, pH 7.5, 10 mM MgCl2, 50 mM KCl, 1 mM TCEP
T1 construct: full-length, N-terminal 6xHis-SUMO2 tag removed by SENP2, expressed in E. coli BL21-RIL; heptamer, active site between neighbouring subunits; Walker A G81, K82, T83, Walker B D221, D222
T1 sequence (A0AAN0NNX5 1-947): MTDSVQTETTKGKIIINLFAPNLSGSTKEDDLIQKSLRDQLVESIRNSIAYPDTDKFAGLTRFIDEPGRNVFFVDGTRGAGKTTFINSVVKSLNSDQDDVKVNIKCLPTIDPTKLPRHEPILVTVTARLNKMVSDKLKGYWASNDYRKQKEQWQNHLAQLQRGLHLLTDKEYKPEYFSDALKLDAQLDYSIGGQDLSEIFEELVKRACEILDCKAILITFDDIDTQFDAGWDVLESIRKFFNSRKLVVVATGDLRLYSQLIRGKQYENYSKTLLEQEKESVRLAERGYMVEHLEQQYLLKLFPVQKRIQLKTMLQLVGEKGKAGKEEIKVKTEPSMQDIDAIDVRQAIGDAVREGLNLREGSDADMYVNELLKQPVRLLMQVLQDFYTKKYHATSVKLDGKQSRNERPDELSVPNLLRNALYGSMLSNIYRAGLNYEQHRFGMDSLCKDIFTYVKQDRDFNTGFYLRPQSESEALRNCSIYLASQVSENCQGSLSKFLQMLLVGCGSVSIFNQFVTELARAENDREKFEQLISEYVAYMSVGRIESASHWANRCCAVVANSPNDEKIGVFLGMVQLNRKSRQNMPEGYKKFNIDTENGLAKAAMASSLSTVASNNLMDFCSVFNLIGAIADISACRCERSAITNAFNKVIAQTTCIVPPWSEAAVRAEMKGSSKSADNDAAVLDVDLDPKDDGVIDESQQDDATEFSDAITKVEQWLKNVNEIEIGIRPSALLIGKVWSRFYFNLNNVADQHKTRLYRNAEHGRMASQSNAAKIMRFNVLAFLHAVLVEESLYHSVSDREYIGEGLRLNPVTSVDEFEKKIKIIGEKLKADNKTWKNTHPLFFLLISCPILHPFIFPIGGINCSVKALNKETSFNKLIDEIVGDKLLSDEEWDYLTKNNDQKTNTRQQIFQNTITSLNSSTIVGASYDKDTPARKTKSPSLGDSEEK

E. coli RdrB (EcRdrB) [1] = target: T2, E. coli RdrB (EcRdrB) (Escherichia coli, UniProt A0AAN0NNX4); assay: HPLC deamination assay (ATP to ITP) after phosphatase treatment; type: biochemical; settings: 1 mM substrate, 1 μM RdrB, 30 min, 37 °C, pH 7.5, 10 mM MgCl2, 100 μM ZnSO4, 50 mM KCl, 1 mM TCEP
T2 construct: full-length, ~90 kDa, N-terminal 6xHis-SUMO2 tag removed by SENP2, expressed in E. coli BL21-RIL; dodecamer; Zn site H152, H154, H498, H530, catalytic E501
T2 sequence (A0AAN0NNX4 1-799): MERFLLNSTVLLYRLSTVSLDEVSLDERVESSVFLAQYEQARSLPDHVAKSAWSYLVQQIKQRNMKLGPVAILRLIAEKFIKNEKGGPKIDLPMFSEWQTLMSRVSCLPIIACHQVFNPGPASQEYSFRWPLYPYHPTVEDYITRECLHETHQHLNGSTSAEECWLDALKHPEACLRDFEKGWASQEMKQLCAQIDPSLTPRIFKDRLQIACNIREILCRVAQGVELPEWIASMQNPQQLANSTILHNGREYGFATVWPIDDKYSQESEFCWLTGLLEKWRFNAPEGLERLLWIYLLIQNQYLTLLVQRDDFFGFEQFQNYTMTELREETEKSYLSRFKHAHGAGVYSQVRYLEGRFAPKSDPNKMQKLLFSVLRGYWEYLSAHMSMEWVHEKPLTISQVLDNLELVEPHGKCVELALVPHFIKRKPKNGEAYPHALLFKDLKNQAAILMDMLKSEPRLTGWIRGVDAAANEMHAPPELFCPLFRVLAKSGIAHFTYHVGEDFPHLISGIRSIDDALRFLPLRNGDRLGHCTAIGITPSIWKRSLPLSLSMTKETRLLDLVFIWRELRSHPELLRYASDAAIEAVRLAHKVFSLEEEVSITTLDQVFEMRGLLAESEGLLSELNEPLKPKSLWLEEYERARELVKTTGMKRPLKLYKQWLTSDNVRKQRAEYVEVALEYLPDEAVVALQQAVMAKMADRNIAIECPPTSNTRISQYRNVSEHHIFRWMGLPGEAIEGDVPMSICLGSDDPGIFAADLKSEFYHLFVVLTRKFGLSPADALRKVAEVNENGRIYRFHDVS

E. coli RdrB (EcRdrB) [2] = target: T2, E. coli RdrB (EcRdrB); assay: HPLC deamination assay (dATP to dITP) after phosphatase treatment; type: biochemical; settings: 1 mM substrate, 1 μM RdrB, 30 min, 37 °C, pH 7.5, 10 mM MgCl2, 100 μM ZnSO4, 50 mM KCl, 1 mM TCEP
[3] = target: E. coli RdrA (RADAR system of E. coli P0304799.3) (E. coli P0304799.3); assay: cryo-EM structure; purified E. coli RdrA alone, 2.40 mg/mL, vitrified at 4°C; Titan Krios 300 kV
[4] = target: E. coli RdrB (RADAR system of E. coli P0304799.3) (E. coli P0304799.3); assay: cryo-EM structure; purified E. coli RdrB alone, 2.35 mg/mL, vitrified at 4°C; Titan Krios 300 kV
[5] = target: S. suis RdrA (RADAR system of Streptococcus suis SS993) (Streptococcus suis SS993); assay: cryo-EM structure; purified S. suis RdrA alone; Talos Arctica 200 kV; single heptameric rings and double stacked rings picked

Nc1ncnc2c1ncn2[C@@H]1O[C@H](COP(=O)(O)OP(=O)(O)OP(=O)(O)O)[C@@H](O)[C@H]1O [ATP]
malachite green phosphate release (NTPase) (E. coli RdrA (EcRdrA)): RdrA is an active ATPase in vitro that preferentially hydrolyzes ATP | HPLC deamination assay (ATP to ITP) after phosphatase treatment (E. coli RdrB (EcRdrB) [1]): E. coli RdrB robustly deaminates both ATP and dATP substrates with equal efficiency

O=c1[nH]cnc2c1ncn2[C@@H]1O[C@H](COP(=O)(O)OP(=O)(O)OP(=O)(O)O)[C@@H](O)[C@H]1O [ITP]
malachite green phosphate release (NTPase) (E. coli RdrA (EcRdrA); weak substrate): Compared with ATP, RdrA only weakly hydrolyzes ITP and GTP

Nc1ncnc2c1ncn2[C@H]1C[C@H](O)[C@@H](COP(=O)(O)OP(=O)(O)OP(=O)(O)O)O1 [dATP]
HPLC deamination assay (dATP to dITP) after phosphatase treatment (E. coli RdrB (EcRdrB) [2]): E. coli RdrB robustly deaminates both ATP and dATP substrates with equal efficiency

E. coli RdrA (RADAR system of E. coli P0304799.3) (enzyme)
stoichiometry N [3]: 7

E. coli RdrB (RADAR system of E. coli P0304799.3) (enzyme)
stoichiometry N [4]: 12

S. suis RdrA (RADAR system of Streptococcus suis SS993) (enzyme)
stoichiometry N [5]: 7 and 14
